From US10670605B2, “Cysteine reactive probes and uses thereof” (The Scripps Research Institute, priority 2015, dated 2020)

Legend:
Assay in all cases: Competitive isoTOP-ABPP in situ (fragment-treated cells)
Format in all cases: cell-based
[1] = target: T1, cysteines in MDA-MB-231 and Ramos cells (Homo sapiens, UniProt Q9NRG0)
T1 sequence (Q9NRG0 1-131): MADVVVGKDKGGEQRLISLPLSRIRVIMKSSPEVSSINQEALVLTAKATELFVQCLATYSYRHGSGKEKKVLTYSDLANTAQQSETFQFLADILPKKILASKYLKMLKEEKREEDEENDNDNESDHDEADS

[2] = target: cysteines in MDA-MB-231 and Ramos cells (Homo sapiens, UniProt P83731)
[3] = target: T2, cysteines in MDA-MB-231 and Ramos cells (Homo sapiens, UniProt O14879)
T2 sequence (O14879 1-490): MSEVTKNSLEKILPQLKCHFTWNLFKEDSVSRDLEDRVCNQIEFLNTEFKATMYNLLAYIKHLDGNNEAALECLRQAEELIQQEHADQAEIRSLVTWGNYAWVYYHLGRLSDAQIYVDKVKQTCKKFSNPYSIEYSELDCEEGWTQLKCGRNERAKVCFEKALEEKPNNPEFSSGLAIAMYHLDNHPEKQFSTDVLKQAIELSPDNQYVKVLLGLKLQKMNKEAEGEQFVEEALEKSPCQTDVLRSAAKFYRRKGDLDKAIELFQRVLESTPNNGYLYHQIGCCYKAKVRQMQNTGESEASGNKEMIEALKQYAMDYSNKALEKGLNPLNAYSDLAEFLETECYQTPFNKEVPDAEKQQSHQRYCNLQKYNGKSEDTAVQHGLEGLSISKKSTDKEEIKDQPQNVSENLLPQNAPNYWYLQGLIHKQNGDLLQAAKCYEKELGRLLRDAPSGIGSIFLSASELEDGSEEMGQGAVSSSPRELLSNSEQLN

[4] = target: cysteines in MDA-MB-231 and Ramos cells (Homo sapiens, UniProt O60610)
Chain of cysteines in MDA-MB-231 and Ramos cells (Homo sapiens, UniProt O60610) (O60610 whole entry): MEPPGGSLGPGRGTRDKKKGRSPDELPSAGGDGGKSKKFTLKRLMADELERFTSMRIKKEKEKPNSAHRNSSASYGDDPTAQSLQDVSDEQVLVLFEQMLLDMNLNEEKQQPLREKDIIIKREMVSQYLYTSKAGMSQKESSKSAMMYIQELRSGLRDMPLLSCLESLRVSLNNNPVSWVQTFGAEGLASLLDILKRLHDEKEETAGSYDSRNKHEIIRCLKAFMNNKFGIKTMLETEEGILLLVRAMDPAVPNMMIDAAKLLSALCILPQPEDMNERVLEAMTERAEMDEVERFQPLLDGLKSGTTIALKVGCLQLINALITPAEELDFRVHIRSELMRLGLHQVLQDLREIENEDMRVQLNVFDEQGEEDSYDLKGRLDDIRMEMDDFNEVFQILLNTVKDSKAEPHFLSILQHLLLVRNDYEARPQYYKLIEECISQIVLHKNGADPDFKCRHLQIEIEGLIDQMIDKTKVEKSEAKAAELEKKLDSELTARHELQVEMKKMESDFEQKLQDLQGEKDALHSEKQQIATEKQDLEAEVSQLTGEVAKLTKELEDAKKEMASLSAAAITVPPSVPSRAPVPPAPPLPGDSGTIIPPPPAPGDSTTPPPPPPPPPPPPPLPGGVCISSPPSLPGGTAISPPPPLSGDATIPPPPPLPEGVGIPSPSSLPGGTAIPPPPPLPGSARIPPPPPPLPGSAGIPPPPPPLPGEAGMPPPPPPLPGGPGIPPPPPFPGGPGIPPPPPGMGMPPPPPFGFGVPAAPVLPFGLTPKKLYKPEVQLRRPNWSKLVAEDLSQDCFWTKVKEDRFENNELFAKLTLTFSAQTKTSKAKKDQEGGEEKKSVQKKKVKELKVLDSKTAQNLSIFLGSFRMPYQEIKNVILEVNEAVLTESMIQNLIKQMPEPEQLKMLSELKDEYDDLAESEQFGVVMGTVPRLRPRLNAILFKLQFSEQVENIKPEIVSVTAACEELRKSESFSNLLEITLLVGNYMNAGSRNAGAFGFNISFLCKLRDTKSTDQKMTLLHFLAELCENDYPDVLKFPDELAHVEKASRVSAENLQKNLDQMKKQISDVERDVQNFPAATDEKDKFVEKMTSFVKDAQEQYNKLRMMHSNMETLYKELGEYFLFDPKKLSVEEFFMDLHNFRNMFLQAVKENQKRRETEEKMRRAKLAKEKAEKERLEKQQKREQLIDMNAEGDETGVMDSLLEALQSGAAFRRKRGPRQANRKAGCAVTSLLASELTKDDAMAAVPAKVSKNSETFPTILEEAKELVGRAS

[5] = target: T3, cysteines in MDA-MB-231 and Ramos cells (Homo sapiens, UniProt P21980)
T3 sequence (P21980 1-687): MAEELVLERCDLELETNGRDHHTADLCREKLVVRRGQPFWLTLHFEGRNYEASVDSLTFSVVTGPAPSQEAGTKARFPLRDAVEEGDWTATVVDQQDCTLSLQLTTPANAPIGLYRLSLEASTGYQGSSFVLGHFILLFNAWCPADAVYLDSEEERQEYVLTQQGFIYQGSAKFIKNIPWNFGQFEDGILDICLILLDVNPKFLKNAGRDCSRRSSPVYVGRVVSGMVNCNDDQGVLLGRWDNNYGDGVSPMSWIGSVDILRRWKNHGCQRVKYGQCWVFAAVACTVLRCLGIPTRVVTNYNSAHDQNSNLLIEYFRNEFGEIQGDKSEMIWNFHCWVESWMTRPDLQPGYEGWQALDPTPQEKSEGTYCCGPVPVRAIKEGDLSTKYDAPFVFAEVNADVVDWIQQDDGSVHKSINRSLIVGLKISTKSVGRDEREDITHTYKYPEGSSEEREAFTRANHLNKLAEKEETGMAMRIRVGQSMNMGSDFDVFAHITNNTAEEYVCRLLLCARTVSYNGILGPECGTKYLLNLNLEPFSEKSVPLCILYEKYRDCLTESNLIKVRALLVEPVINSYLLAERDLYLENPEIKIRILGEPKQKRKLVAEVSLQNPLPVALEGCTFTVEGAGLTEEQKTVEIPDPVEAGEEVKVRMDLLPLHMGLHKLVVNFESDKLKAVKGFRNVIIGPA

[6] = target: T4, cysteines in MDA-MB-231 and Ramos cells (Homo sapiens, UniProt Q96HE7)
T4 sequence (Q96HE7 24-468): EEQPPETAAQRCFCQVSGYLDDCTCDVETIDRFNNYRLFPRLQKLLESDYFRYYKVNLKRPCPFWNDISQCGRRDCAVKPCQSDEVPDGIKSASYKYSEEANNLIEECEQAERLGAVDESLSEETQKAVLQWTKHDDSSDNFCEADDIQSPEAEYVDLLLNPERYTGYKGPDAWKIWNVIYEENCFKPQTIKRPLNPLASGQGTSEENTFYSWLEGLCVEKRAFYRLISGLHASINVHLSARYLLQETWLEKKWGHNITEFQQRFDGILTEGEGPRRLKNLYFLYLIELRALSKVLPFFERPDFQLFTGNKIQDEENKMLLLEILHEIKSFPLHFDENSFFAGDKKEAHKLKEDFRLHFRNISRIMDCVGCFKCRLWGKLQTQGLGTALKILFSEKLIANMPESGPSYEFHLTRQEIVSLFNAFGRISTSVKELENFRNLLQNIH

[7] = target: T5, cysteines in MDA-MB-231 and Ramos cells (Homo sapiens, UniProt A6NDU8)
T5 sequence (A6NDU8 1-294): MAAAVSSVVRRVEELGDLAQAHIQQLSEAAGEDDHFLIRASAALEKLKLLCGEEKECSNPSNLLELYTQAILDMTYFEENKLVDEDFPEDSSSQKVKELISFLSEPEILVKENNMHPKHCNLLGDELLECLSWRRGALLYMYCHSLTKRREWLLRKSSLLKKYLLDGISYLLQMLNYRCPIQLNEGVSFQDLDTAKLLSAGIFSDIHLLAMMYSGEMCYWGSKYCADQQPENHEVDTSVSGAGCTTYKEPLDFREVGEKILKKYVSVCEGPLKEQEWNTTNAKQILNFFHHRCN

[8] = target: T6, cysteines in MDA-MB-231 and Ramos cells (Homo sapiens, UniProt Q99497)
T6 sequence (Q99497 1-189): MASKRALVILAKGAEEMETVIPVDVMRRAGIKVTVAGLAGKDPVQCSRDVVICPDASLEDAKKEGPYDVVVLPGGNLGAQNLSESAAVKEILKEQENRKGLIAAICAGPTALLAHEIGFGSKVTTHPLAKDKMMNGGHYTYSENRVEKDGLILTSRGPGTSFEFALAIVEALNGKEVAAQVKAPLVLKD

[9] = target: cysteines in MDA-MB-231 and Ramos cells (Homo sapiens, UniProt P38606)
Chain of cysteines in MDA-MB-231 and Ramos cells (Homo sapiens, UniProt P38606) (P38606 whole entry): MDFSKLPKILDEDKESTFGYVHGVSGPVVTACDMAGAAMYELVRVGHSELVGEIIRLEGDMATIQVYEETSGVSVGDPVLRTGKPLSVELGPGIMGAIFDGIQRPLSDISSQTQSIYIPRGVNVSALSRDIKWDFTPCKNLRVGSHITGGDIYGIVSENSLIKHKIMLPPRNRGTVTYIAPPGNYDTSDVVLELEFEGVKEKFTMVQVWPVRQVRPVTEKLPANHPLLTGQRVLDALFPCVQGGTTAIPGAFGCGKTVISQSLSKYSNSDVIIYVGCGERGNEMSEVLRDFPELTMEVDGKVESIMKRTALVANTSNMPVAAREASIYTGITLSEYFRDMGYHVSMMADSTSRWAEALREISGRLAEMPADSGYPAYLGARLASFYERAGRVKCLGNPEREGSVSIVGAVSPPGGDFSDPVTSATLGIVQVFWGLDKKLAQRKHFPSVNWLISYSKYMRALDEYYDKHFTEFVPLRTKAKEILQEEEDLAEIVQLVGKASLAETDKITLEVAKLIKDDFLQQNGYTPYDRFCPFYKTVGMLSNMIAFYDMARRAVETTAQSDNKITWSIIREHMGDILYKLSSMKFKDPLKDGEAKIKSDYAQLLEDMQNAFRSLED

Row | isoTOP-ABPP ratio Q9NRG0_C55 ([1]; 200 μM, insitu, 231) | isoTOP-ABPP ratio Q99497_C106 ([8]; 200 μM, insitu, 231) | isoTOP-ABPP ratio P83731_C6 ([2]; 200 μM, insitu, 231) | isoTOP-ABPP ratio O14879_C343 ([3]; 200 μM, insitu, 231) | isoTOP-ABPP ratio O60610_C1227 ([4]; 200 μM, insitu, 231) | isoTOP-ABPP ratio P38606_C138 ([9]; 200 μM, insitu, 231) | isoTOP-ABPP ratio P21980_C277 ([5]; 200 μM, insitu, 231) | isoTOP-ABPP ratio Q96HE7_C241 ([6]; 200 μM, insitu, 231) | isoTOP-ABPP ratio A6NDU8_C179 ([7]; 200 μM, insitu, 231) | SMILES | also measured
1 | – | – | – | – | – | – | – | – | – | COc1ccc2c(c1)CCCN2C(=O)CCl [compound 2] | isoTOP-ABPP reactivity Q9NRG0_C55 CHRAC1 ([1]; 200 μM, insitu, 231): 20.0; isoTOP-ABPP reactivity P83731_C6 RPL24 ([2]; 200 μM, insitu, 231): 2.4; isoTOP-ABPP reactivity O14879_C343 IFIT3 ([3]; 200 μM, insitu, 231): 7.6; isoTOP-ABPP reactivity O60610_C1227 DIAPH1 ([4]; 200 μM, insitu, 231): 2.2; isoTOP-ABPP reactivity P21980_C277 TGM2 ([5]; 200 μM, insitu, 231): 0.7; isoTOP-ABPP reactivity Q96HE7_C241 ERO1L ([6]; 200 μM, insitu, 231): 2.4; isoTOP-ABPP reactivity A6NDU8_C179 C5orf51 ([7]; 200 μM, insitu, 231): 4.2
2 | 0.9 | 0.9 | 0.4 | 0.4 | 0.5 | 4.6 | 0.6 | 0.9 | 0.7 | CC(C)CCOCCNC(=O)CCl [compound 27] | –
3 | 20.0 | 3.0 | 0.3 | 3.5 | 0.8 | 20.0 | 0.3 | 16.4 | – | O=C(CCl)NC(=O)NC12CC3CC(CC(C3)C1)C2 [compound 12] | –
4 | – | – | 1.0 | 0.8 | 20.0 | 20.0 | 0.7 | 1.6 | 0.9 | O=C(CCl)NC12CC3CC(CC(C3)C1)C2 [compound 21] | –
5 | 2.7 | 1.7 | 0.4 | 4.9 | 1.5 | 20.0 | 0.6 | 2.0 | 1.3 | O=C(CCl)N1CCN(S(=O)(=O)c2ccccc2F)CC1 [compound 10] | isoTOP-ABPP ratio P83731_C6 ([2]; 200 μM, insitu, ramos): 2.0; isoTOP-ABPP ratio O60610_C1227 ([4]; 200 μM, insitu, ramos): 1.4
6 | 0.9 | 0.6 | 0.3 | 0.3 | 0.6 | 0.8 | 0.6 | 0.7 | 0.6 | Cc1ccc(C=C(C#N)C(=O)NCCN2CCOCC2)cc1 [compound 41] | isoTOP-ABPP ratio Q96HE7_C37 ([6]; 200 μM, insitu, 231): 0.4
7 | – | – | – | – | – | – | – | – | – | Cn1cc(S(=O)(=O)N2CCOCC2)cc1C(=O)NC(=O)CCl [compound 11] | isoTOP-ABPP ratio Q9NRG0_C55 ([1]; 100 μM in situ 231): 1.1; isoTOP-ABPP ratio Q99497_C106 ([8]; 100 μM in situ 231): 1.3; isoTOP-ABPP ratio P83731_C6 ([2]; 100 μM in situ 231): 0.5; isoTOP-ABPP ratio O14879_C343 ([3]; 100 μM in situ 231): 0.4; isoTOP-ABPP ratio O60610_C1227 ([4]; 100 μM in situ 231): 0.9; isoTOP-ABPP ratio P38606_C138 ([9]; 100 μM in situ 231): 9.2; isoTOP-ABPP ratio P21980_C277 ([5]; 100 μM in situ 231): 0.6; isoTOP-ABPP ratio Q96HE7_C241 ([6]; 100 μM in situ 231): 1.8; isoTOP-ABPP ratio A6NDU8_C179 ([7]; 100 μM in situ 231): 0.7
8 | – | 1.0 | – | 0.7 | – | – | 0.4 | 1.1 | 0.8 | COc1ccccc1OCCNC(=O)CCl [compound 28] | –
9 | 20.0 | 20.0 | 1.2 | 4.0 | 3.0 | – | 1.1 | 2.1 | 20.0 | CC1CCc2ccccc2N1C(=O)CCl (stereo not shown) [compound 45] | isoTOP-ABPP ratio Q96HE7_C37 ([6]; 200 μM, insitu, 231): 20.0
10 | 1.1 | 1.4 | – | 1.3 | – | 10.6 | 1.0 | 1.7 | – | O=C(CCl)Nc1cccc2ncccc12 [compound 51] | –
11 | 1.0 | 1.1 | 2.1 | – | 0.3 | 2.1 | 1.4 | 1.6 | 1.4 | C=CC(=O)Nc1cc(F)c(N2CCN(C(=O)OC(C)(C)C)CC2)c(F)c1 [compound 38] | isoTOP-ABPP ratio Q96HE7_C37 ([6]; 200 μM, insitu, 231): 3.4
12 | – | – | – | – | – | – | – | – | – | COc1cc2c(cc1OC)CN(C(=O)CCl)CC2 [compound 8] | isoTOP-ABPP reactivity Q9NRG0_C55 CHRAC1 ([1]; 200 μM, insitu, 231): 7.4; isoTOP-ABPP reactivity O14879_C343 IFIT3 ([3]; 200 μM, insitu, 231): 2.1; isoTOP-ABPP reactivity P38606_C138 ATP6V1A ([9]; 200 μM, insitu, 231): 20.0; isoTOP-ABPP reactivity P21980_C277 TGM2 ([5]; 200 μM, insitu, 231): 0.7; isoTOP-ABPP reactivity Q96HE7_C241 ERO1L ([6]; 200 μM, insitu, 231): 3.7
13 | – | 0.8 | – | 0.9 | 0.6 | – | – | 0.7 | – | C=CC(=O)N(Cc1cccnc1)c1cc(C(F)(F)F)cc(C(F)(F)F)c1 [compound 31] | isoTOP-ABPP ratio Q9NRG0_C55 ([1]; 200 μM, insitu, ramos): 1.6; isoTOP-ABPP ratio Q99497_C106 ([8]; 200 μM, insitu, ramos): 1.0; isoTOP-ABPP ratio O60610_C1227 ([4]; 200 μM, insitu, ramos): 1.2; isoTOP-ABPP ratio P38606_C138 ([9]; 200 μM, insitu, ramos): 1.7; isoTOP-ABPP ratio Q96HE7_C37 ([6]; 200 μM, insitu, 231): 0.6
14 | – | – | – | – | – | – | – | – | – | O=C(CCl)N1CCC(Cc2ccccc2)CC1 [compound 9] | isoTOP-ABPP reactivity Q9NRG0_C55 CHRAC1 ([1]; 200 μM, insitu, 231): 2.9; isoTOP-ABPP reactivity P83731_C6 RPL24 ([2]; 200 μM, insitu, 231): 4.3; isoTOP-ABPP reactivity O14879_C343 IFIT3 ([3]; 200 μM, insitu, 231): 17.2; isoTOP-ABPP reactivity O60610_C1227 DIAPH1 ([4]; 200 μM, insitu, 231): 1.5; isoTOP-ABPP reactivity P38606_C138 ATP6V1A ([9]; 200 μM, insitu, 231): 20.0; isoTOP-ABPP reactivity P21980_C277 TGM2 ([5]; 200 μM, insitu, 231): 2.3; isoTOP-ABPP reactivity Q96HE7_C37 ERO1L ([6]; 200 μM, insitu, 231): 20.0; isoTOP-ABPP reactivity A6NDU8_C179 C5orf51 ([7]; 200 μM, insitu, 231): 20.0
15 | – | – | – | – | – | – | – | – | – | O=C(CCl)N1CCN(CC(=O)N2CCOCC2)CC1 [compound 29] | isoTOP-ABPP ratio Q9NRG0_C55 ([1]; 200 μM, insitu, ramos): 1.5; isoTOP-ABPP ratio P83731_C6 ([2]; 200 μM, insitu, ramos): 1.6; isoTOP-ABPP ratio O60610_C1227 ([4]; 200 μM, insitu, ramos): 1.6; isoTOP-ABPP ratio Q96HE7_C37 ([6]; 200 μM, insitu, ramos): 2.1; isoTOP-ABPP ratio Q96HE7_C241 ([6]; 200 μM, insitu, ramos): 1.3; isoTOP-ABPP ratio A6NDU8_C179 ([7]; 200 μM, insitu, ramos): 1.0
